Twelve molecules from US9708370B2, “Azapeptides as CD36 binding compounds” (VALORISATION-RECHERCHE, LIMITED PARTNERSHIP, priority 2007, dated 2017) can be followed below.

Starred links: 1 amine or outer side, 2 acyl side, 3 side chain; linkers in the order of their positions; H or OH if unused. Non-standard residues stand in square brackets, D forms with d. Residues, ends and D or L forms follow the SMILES beside them. azaTyr = O=C(N(Cc1ccc(O)cc1)N[*:1])[*:2]; azaPhe = O=C(N(Cc1ccccc1)N[*:1])[*:2]; azaLeu = CC(C)CN(N[*:1])C(=O)[*:2]; azaPro = O=C(N1CCCN1[*:1])[*:2]; azaGly = NNC(=O)O Bounds are passed on as bounds.

In this assay the target is human GHS-R1a (Homo sapiens (Human), UniProt Q92847). The assay is described as follows: GHS-R1a binding assay, competition with 125I-ghrelin on membranes of LLC-PK1 cells expressing human GHS-R1a. Particulars: Table 5; read-out: IC50 Binding GHS-R1a. On the procedure: Rat ghrelin was radio iodinated with Na^125I using the lodo-Beads iodination reagent (Pierce #28665). Briefly, an lodo-bead was incubated with 2 mCi of Na^125I (Amersham) in 100 μL of 50 mM sodium phosphate buffer, pH 7.0 for 5 min at 22° C. The reaction was started by adding 20 nmol of the peptide (1 mM in 0.1 M acetic acid). The tube was incubated for 10 min at 22° C. The iodination was terminated by adding 1 mL of 0.1% TFA. The mono-iodinated peptide was purified by reverse-phase HPLC using a Vydac C18 ([…]) column (30 cm×0.39 cm) in combination with a binary elution system of (A) 0.1% TFA in H2O and (B) 0.1% TFA, 10% H2O, 90% acetonitrile. Fractions of 0.5 mL were collected and analyzed by its radioactive content.
Chain of human GHS-R1a (Q92847 whole entry): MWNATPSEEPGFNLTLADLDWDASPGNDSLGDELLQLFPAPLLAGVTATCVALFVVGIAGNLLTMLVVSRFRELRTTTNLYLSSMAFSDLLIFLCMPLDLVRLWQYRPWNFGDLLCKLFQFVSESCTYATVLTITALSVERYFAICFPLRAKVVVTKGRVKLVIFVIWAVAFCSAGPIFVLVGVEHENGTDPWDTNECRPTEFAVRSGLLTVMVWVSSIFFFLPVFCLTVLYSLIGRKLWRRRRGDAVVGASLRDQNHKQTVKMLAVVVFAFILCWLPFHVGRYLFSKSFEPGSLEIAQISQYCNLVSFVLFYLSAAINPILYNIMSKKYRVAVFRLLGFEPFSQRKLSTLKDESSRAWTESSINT
Cells (1.4×10^6) were plated in 100 mm plates and transfected 24 h later with pCDNA3.1-hGHS-R1a (UMR cDNA Resource Center #GHSR0A0000) following the CaHPO4 precipitation method. Briefly, 40 μg of plasmid DNA was diluted in 500 μL of sterile H2O and added to an equal volume of a 4× CaCl2, pH 7.9 solution (2 mM Tris-HCl, 0.2 mM EDTA, 500 mM CaCl2). The mixture was then added slowly with air bubbles to 1 mL of 2× Hepes-buffered saline, pH 7.1 (50 mM Hepes, 280 mM NaCl, 1.5 mM Na2HPO4). After 30 min at room temperature, 1 mL was distributed evenly over the cells and let overnight. The medium was changed the next morning and the membrane preparation was made two days later.
Cells were washed twice with PBS and once with ice-cold homogenization buffer (50 mM Tris-HCl, pH 7.3, 5 mM MgCl2, 2.5 mM EDTA, 30 μg/ml bacitracin). Cells were scraped and harvested in 1.5 mL tubes. Cells were then lysed by temperature shock with two freeze/thaw cycles in liquid nitrogen. The tubes were centrifuged at 14000 g for 20 min. Pellets were resuspended in homogenization buffer and stored at −80° C. until used. Total protein concentrations were determined with the BCA protein assay kit (Pierce).
Competition experiments were performed by incubating 50 μg of LLC-PK1 membranes expressing human GHS-R1a with 15 fmol of ^125I-Ghrelin and increasing concentrations of unlabeled ghrelin or with increasing concentrations of azapeptides derivatives in 0.5 mL of binding buffer. Bound radiolabelled ligand was separated from free by filtration on Whatman GF/C filters pretreated with a 1% polyethylenimine solution. Filters were washed with 2×3 mL of washing buffer (50 mM Tris-HCl, pH 7.3, 10 mM MgCl2, 2.5 mM EDTA, 0.015% Triton X-100). Filters were counted in a LKB gamma counter. Curves were analyzed using Prism software (GraphPad Software Inc).
By IC50 is commonly meant the concentration needed to halve the response being measured. On to `C[C@H](NC(=O)N(Cc1ccccc1)NC(=O)[C@@H](N)Cc1cnc[nH]1)C(=O)N[C@@H](Cc1c[nH]c2ccccc12)C(=O)N[C@H](C)C(=O)N[C@@H](CCCCN)C(N)=O` [CP-1A(ii), His-azaPhe-Ala-Trp-D-Ala-Lys-NH2] (H-H[azaPhe]AW[dA]K-NH2), for which the IC50 is over 10 µM. With `C[C@H](NC(=O)[C@H](C)NC(=O)N(Cc1ccc(O)cc1)NC(=O)[C@@H](N)Cc1cnc[nH]1)C(=O)N[C@H](Cc1ccccc1)C(=O)N[C@@H](CCCCN)C(N)=O` [CP-1B(iii), (D/L)His-azaTyr-Ala-Ala-D-Phe-Lys-NH2] (H-H[azaTyr]AA[dF]K-NH2), the IC50 is over 10 µM. For `C[C@H](NC(=O)[C@@H](Cc1ccccc1)NC(=O)[C@H](Cc1c[nH]c2ccccc12)NC(=O)NNC(=O)[C@@H](Cc1c[nH]c2ccccc12)NC(=O)[C@@H](N)Cc1cnc[nH]1)C(N)=O` [CP-2A(i), His-D-Trp-azaGly-Trp-D-Phe-Ala-NH2] (H-H[dW][azaGly]W[dF]A-NH2), the IC50 was determined as 45 µM. With `C[C@@H](NC(=O)[C@H](Cc1c[nH]c2ccccc12)NC(=O)NNC(=O)[C@@H](Cc1c[nH]c2ccccc12)NC(=O)[C@@H](N)Cc1cnc[nH]1)C(=O)N[C@@H](CCCCN)C(N)=O` [CP-2A(ii), His-D-Trp-azaGly-Trp-D-Ala-Lys-NH2] (H-H[dW][azaGly]W[dA]K-NH2), the IC50 was over 10 µM. Consider `C[C@H](NC(=O)NNC(=O)[C@@H](Cc1c[nH]c2ccccc12)NC(=O)[C@@H](N)Cc1cnc[nH]1)C(=O)N[C@H](Cc1ccccc1)C(=O)N[C@@H](CCCCN)C(N)=O` [CP-2A(iii), His-D-Trp-azaGly-Ala-D-Phe-Lys-NH2] (H-H[dW][azaGly]A[dF]K-NH2), for which the IC50 was over 10 µM. In the case of `C[C@@H](NC(=O)[C@@H](N)Cc1cnc[nH]1)C(=O)NNC(=O)N[C@@H](Cc1c[nH]c2ccccc12)C(=O)N[C@H](Cc1ccccc1)C(=O)N[C@@H](CCCCN)C(N)=O` [CP-2A(iv), His-D-Ala-azaGly-Trp-D-Phe-Lys-NH2] (H-H[dA][azaGly]W[dF]K-NH2), the concentration for half-maximal inhibition (IC50) was over 10 µM. `CC(C)CN(NC(=O)[C@@H](C)NC(=O)[C@@H](N)Cc1cnc[nH]1)C(=O)N[C@@H](Cc1c[nH]c2ccccc12)C(=O)N[C@H](Cc1ccccc1)C(=O)N[C@@H](CCCCN)C(N)=O` [CP-2B (iv), His-D-Ala-azaLeu-Trp-D-Phe-Lys-NH2] (H-H[dA][azaLeu]W[dF]K-NH2): the IC50 was over 10 µM. As for `C[C@H](NC(=O)[C@@H](C)NC(=O)[C@@H](N)Cc1cnc[nH]1)C(=O)NN(Cc1ccccc1)C(=O)N[C@H](Cc1ccccc1)C(=O)N[C@@H](CCCCN)C(N)=O` [CP-3 (iii), His-D-Ala-Ala-azaPhe-D-Phe-Lys-NH2] (H-H[dA]A[azaPhe][dF]K-NH2), the figure is over 10 µM; as for `C[C@H](N)C(=O)N[C@H](Cc1c[nH]c2ccccc12)C(=O)N[C@@H](C)C(=O)NN(Cc1ccccc1)C(=O)N[C@H](Cc1ccccc1)C(=O)N[C@@H](CCCCN)C(N)=O` [CP-3 (iv), Ala-D-Trp-Ala-AzaPhe-D-Phe-Lys-NH2] (H-A[dW]A[azaPhe][dF]K-NH2), over 10 µM.

As for `C[C@H](NC(=O)[C@@H](Cc1ccccc1)NC(=O)N(Cc1ccccc1)NC(=O)[C@H](C)NC(=O)[C@@H](Cc1c[nH]c2ccccc12)NC(=O)[C@@H](N)Cc1cnc[nH]1)C(N)=O` [CP-3(i), His-D-Trp-Ala-AzaPhe-D-Phe-Ala-NH2] (H-H[dW]A[azaPhe][dF]A-NH2), the IC50 was over 10 µM. Turning to `C[C@H](NC(=O)[C@@H](Cc1c[nH]c2ccccc12)NC(=O)[C@@H](N)Cc1cnc[nH]1)C(=O)NN(Cc1ccccc1)C(=O)N[C@H](C)C(=O)N[C@@H](CCCCN)C(N)=O` [CP-3(ii), His-D-Trp-Ala-azaPhe-D-Ala-Lys-NH2] (H-H[dW]A[azaPhe][dA]K-NH2), the half-maximal inhibitory concentration (IC50) is over 10 µM. `NCCCC[C@H](NC(=O)[C@@H](Cc1ccccc1)NC(=O)[C@H](Cc1c[nH]c2ccccc12)NC(=O)N1CCCN1C(=O)[C@@H](Cc1c[nH]c2ccccc12)NC(=O)[C@@H](N)Cc1cnc[nH]1)C(N)=O` [CP-AP_4, His-D-Trp-azaPro-Trp-D-Phe-Lys-NH2] (H-H[dW][azaPro]W[dF]K-NH2): the IC50 is over 10 µM.
